According to PMC9501129 (Pharmaceutics, 2022):
Like-named read-outs stand apart in the source and are kept apart here.

Key:
[1] = Amniotic fluid drug concentration in mouse pregnancy model (HPLC-MSMS); type: in vivo, C57BL/6J mice; conditions: pregnant mice; for Kp at 1 h / concentration at 1 h: female, C57BL/6J, mouse, oral; for Kp at 1 h: amniotic fluid / maternal plasma; for concentration at 1 h: amniotic fluid
Text: All animal experiments were approved by the University Health Network Animal Use Committee (protocol #2575) and performed according to the policies and guidelines of the Canadian Council on Animal Care. C57BL/6J mice bred in-house (original breeders from Jackson Laboratory RRID:IMSR JAX:000664) were maintained under a 12-h light/dark cycle, with ad libitum access to food and water. Animals were acclimated to their surroundings for 1 week prior to experiment initiation. Males were isolated for 7 days prior to mating. Female mice (7–12 weeks of age) were mated with males at a ratio of 2:1. Presence of vaginal plug was denoted as gestational day 0.5 (GD0.5). Pregnancy was confirmed by weight gain of >1.5 g on GD9.5 and >3 g on GD13.5. […] The equivalent mouse mg/kg dose was calculated based on the human dose divided by an assumed average human weight of 60 kg. […] On GD15.5, mice underwent saphenous bleed 24 h after the GD14.5 dose administration (trough). Immediately after the saphenous bleed, mice were dosed with the appropriate drug regimen and sacrificed 1 h post-treatment (peak), at which time blood was collected by cardiac puncture and amniotic fluid was collected by dissecting the uterus, puncturing the amniotic sac, and draining the amniotic fluid into a sterile dish. Amniotic fluid was pooled for the entire litter. Samples from 2 dams per arm were analyzed for drug levels.
Briefly, 50 μL of plasma or amniotic fluid was spiked with internal standard (ritonavir-d6) followed by protein precipitation with acetonitrile and filtration. Filtrates were diluted 1:9 with ammonium acetate buffer (10 mM) and analyzed by the HPLC-MSMS system, consisting of a Shimadzu Nexera XR high-performance liquid chromatograph (Shimadzu, Columbia, MD, USA) coupled with a SCIEX API 4500 QqQ mass spectrometer (SCIEX, Concord, ON, Canada). Chromatographic separation by Mobile Phase A (10% methanol, 5% 50 mM ammonium acetate, 85% 0.25% acetic acid pH 3.6 ± 0.2) and Mobile Phase B (90% methanol, 5% 50 mM ammonium acetate, 5% 0.25% acetic acid pH 6.6 ± 0.2) was performed under linear gradient conditions (flow rate 0.7 mL/min) on a reverse-phase Zorbax XDB-C18 column (Agilent Technologies, Santa Clara, CA, USA) maintained at 40 °C. […] HPLC-MSMS data were acquired using Analyst (v 1.6.3, SCIEX, Concord, ON, Canada) and analyzed with MultiQuant software (v 3.0.3, SCIEX, Concord, ON, Canada). […] Positive controls spiked in-house and prepared by an external laboratory during a sample exchange program were included in all runs.

[2] = Maternal plasma drug concentration in mouse pregnancy model (HPLC-MSMS); type: in vivo, C57BL/6J mice; conditions: pregnant mice, mean (SD), n=2; for concentration at 24 h / Cmax at 1 h: female, C57BL/6J, mouse, plasma; for concentration at 24 h: oral, read-out: Plasma Concentration 24 h (Cmin)
Text: All animal experiments were approved by the University Health Network Animal Use Committee (protocol #2575) and performed according to the policies and guidelines of the Canadian Council on Animal Care. C57BL/6J mice bred in-house (original breeders from Jackson Laboratory RRID:IMSR JAX:000664) were maintained under a 12-h light/dark cycle, with ad libitum access to food and water. Animals were acclimated to their surroundings for 1 week prior to experiment initiation. Males were isolated for 7 days prior to mating. Female mice (7–12 weeks of age) were mated with males at a ratio of 2:1. Presence of vaginal plug was denoted as gestational day 0.5 (GD0.5). Pregnancy was confirmed by weight gain of >1.5 g on GD9.5 and >3 g on GD13.5. […] The equivalent mouse mg/kg dose was calculated based on the human dose divided by an assumed average human weight of 60 kg. The dose of TDF/FTC was kept constant across the different dosages of BIC and CAB. On GD15.5, mice underwent saphenous bleed 24 h after the GD14.5 dose administration (trough). Immediately after the saphenous bleed, mice were dosed with the appropriate drug regimen and sacrificed 1 h post-treatment (peak), at which time blood was collected by cardiac puncture and amniotic fluid was collected by dissecting the uterus, puncturing the amniotic sac, and draining the amniotic fluid into a sterile dish. Amniotic fluid was pooled for the entire litter. Samples from 2 dams per arm were analyzed for drug levels.
BIC and CAB levels in plasma and amniotic fluid were determined using a validated, simultaneous assay using high-performance liquid chromatography coupled with tandem mass spectrometry (HPLC-MSMS). Briefly, 50 μL of plasma or amniotic fluid was spiked with internal standard (ritonavir-d6) followed by protein precipitation with acetonitrile and filtration. Filtrates were diluted 1:9 with ammonium acetate buffer (10 mM) and analyzed by the HPLC-MSMS system, consisting of a Shimadzu Nexera XR high-performance liquid chromatograph (Shimadzu, Columbia, MD, USA) coupled with a SCIEX API 4500 QqQ mass spectrometer (SCIEX, Concord, ON, Canada). Chromatographic separation by Mobile Phase A (10% methanol, 5% 50 mM ammonium acetate, 85% 0.25% acetic acid pH 3.6 ± 0.2) and Mobile Phase B (90% methanol, 5% 50 mM ammonium acetate, 5% 0.25% acetic acid pH 6.6 ± 0.2) was performed under linear gradient conditions (flow rate 0.7 mL/min) on a reverse-phase Zorbax XDB-C18 column (Agilent Technologies, Santa Clara, CA, USA) maintained at 40 °C. […] HPLC-MSMS data were acquired using Analyst (v 1.6.3, SCIEX, Concord, ON, Canada) and analyzed with MultiQuant software (v 3.0.3, SCIEX, Concord, ON, Canada). […] No peaks were detected in blank mouse plasma at the retention time with the specific ion settings for each compound. […] Positive controls spiked in-house and prepared by an external laboratory during a sample exchange program were included in all runs.

[3] = CAB 5 mg/kg (10×) oral gavage once daily GD11.5-GD15.5 with TDF 50 mg/kg + FTC 33.3 mg/kg, mean (SD), n=2
[4] = CAB 0.5 mg/kg (1×) oral gavage once daily GD11.5-GD15.5 with TDF 50 mg/kg + FTC 33.3 mg/kg
[5] = CAB 1.5 mg/kg (3×) oral gavage once daily GD11.5-GD15.5 with TDF 50 mg/kg + FTC 33.3 mg/kg
[6] = CAB 5 mg/kg (10×) oral gavage once daily GD11.5-GD15.5 with TDF 50 mg/kg + FTC 33.3 mg/kg

Q: With `C[C@H]1CO[C@@H]2Cn3cc(C(=O)NCc4ccc(F)cc4F)c(=O)c(O)c3C(=O)N12` [CAB, cabotegravir] as the molecule, how does the Kp at 1 h ([1]; 1× to 10× CAB, 1 h after dosing, read-out: Ratio of drug in the amniotic fluid to that in maternal plasma) read?
A: 0.034 to 0.055

Q: And the Kp at 1 h ([1]; CAB 0.5 mg/kg (1×) oral gavage once daily GD11.5-GD15.5 with TDF 50 mg/kg + FTC 33.3 mg/kg, mean (SD), n=2, read-out: Amniotic: Maternal Plasma Ratio 1 h)?
A: 0.05

Q: And the Kp at 1 h ([1]; CAB 1.5 mg/kg (3×) oral gavage once daily GD11.5-GD15.5 with TDF 50 mg/kg + FTC 33.3 mg/kg, mean (SD), n=2, read-out: Amniotic: Maternal Plasma Ratio 1 h)?
A: 0.055

Q: What about the Kp at 1 h ([1]; CAB 5 mg/kg (10×) oral gavage once daily GD11.5-GD15.5 with TDF 50 mg/kg + FTC 33.3 mg/kg, mean (SD), n=2, read-out: Amniotic: Maternal Plasma Ratio 1 h) of the same molecule?
A: 0.034

Q: And the concentration at 1 h ([1]; CAB 0.5 mg/kg (1×) oral gavage once daily GD11.5-GD15.5 with TDF 50 mg/kg + FTC 33.3 mg/kg, mean (SD), n=2)?
A: 44.9 ng/mL

Q: What about the concentration at 1 h ([1]; CAB 1.5 mg/kg (3×) oral gavage once daily GD11.5-GD15.5 with TDF 50 mg/kg + FTC 33.3 mg/kg, mean (SD), n=2) of the same molecule?
A: 59.9 ng/mL

Q: What about the concentration at 1 h [1, 3] of the same molecule?
A: 112 ng/mL

Q: And the “Amniotic Fluid 1 h” value [1, 3]?
A: 112.4 (33.6) ng/mL

Q: And the concentration at 24 h [2, 4]?
A: 260 ng/mL

Q: And the concentration at 24 h [2, 5]?
A: 480 ng/mL

Q: What about the concentration at 24 h [2, 6] of the same molecule?
A: ~1300 ng/mL

Q: What about the Cmax at 1 h [2, 4] of the same molecule?
A: 913 ng/mL

Q: What about the Cmax at 1 h [2, 5] of the same molecule?
A: 1270 ng/mL

Q: What about the Cmax at 1 h [2, 6] of the same molecule?
A: 3580 ng/mL

Q: And the “Plasma Concentration 24 h (Cmin)” value [2, 6]?
A: 1306 (402) ng/mL
